Laboratory results: paper PMC9266368, “Synthesis and Biological Evaluation of Small Molecules as Potential Anticancer Multitarget Agents” (International Journal of Molecular Sciences, 2022)

Legend:
[1] = system: HT-29 (colon adenocarcinoma); assay: MTT cell viability assay, HT-29; format: cell-based; settings: Homo sapiens, HT-29, 48 h, 2 days incubation, average ±SD of three experiments
Experimental: (§1) The effects of triazole derivatives 1–26 on the cell viability were determined by MTT assay, and the IC50 values were determined toward the human tumor cell lines HT-29 (colon adenocarcinoma), A-549 (lung adenocarcinoma), and MCF-7 (breast adenocarcinoma), as well as toward the non-tumor cell line HEK-293 (human embryonic kidney cells).
(§2) In 96-well plates, 3 × 10^3 (A549 and HEK-293) or 5 × 10^3 (HT-29, MCF-7) cells per well were incubated with serial dilutions of the tested compounds in a total volume of 100 μL of their growth media. The 3-(4,5-dimethylthiazol-2-yl)-2,5-diphenyltetrazolium bromide (MTT; Sigma Chemical Co.) dye reduction assay in 96-well microplates was used. After 2 days of incubation (37 °C, 5% CO2 in a humid atmosphere), 10 μL of MTT (5 mg/mL in phosphate-buffered saline, PBS) was added to each well, and the plate was incubated for a further 3 h (37 °C). After that, the supernatant was discarded and replaced by 100 µL of DMSO to dissolve formazan crystals. The absorbance was then read at 550 nm by spectro-photometry. For all concentrations of compound, cell viability was expressed as the percentage of the ratio between the mean absorbance of treated cells and the mean absorbance of untreated cells. Three independent experiments were performed, and the IC50 values (i.e., concentration half inhibiting cell proliferation) were graphically determined by using GraphPad Prism 4 software (2019).

[2] = system: A-549 (lung adenocarcinoma); assay: MTT cell viability assay, A-549; format: cell-based; settings: Homo sapiens, A549, 48 h, 2 days incubation, average ±SD of three experiments
Experimental: as §1, §2

[3] = system: MCF-7 (breast adenocarcinoma); assay: MTT cell viability assay, MCF-7; format: cell-based; settings: Homo sapiens, MCF7, 48 h, 2 days incubation, average ±SD of three experiments
Experimental: as §1, §2

[4] = system: HEK-293 (human embryonic kidney cells); assay: MTT cell viability assay, HEK-293; format: cell-based; settings: HEK293, 48 h, 2 days incubation, non-tumor cell line, average ±SD of three experiments
Experimental: as §1, §2

[5] = target: T1, membrane PD-L1 (mPD-L1) (Homo sapiens, UniProt Q9NZQ7); assay: Membrane PD-L1 relative quantification by flow cytometry; format: cell-based; settings: 24 h, 100 or 10 μM (Table 7), percentage referred to DMSO control
T1 construct: endogenous in cells; host or cells: HT-29, A-549, MCF-7
T1 sequence (Q9NZQ7 19-290): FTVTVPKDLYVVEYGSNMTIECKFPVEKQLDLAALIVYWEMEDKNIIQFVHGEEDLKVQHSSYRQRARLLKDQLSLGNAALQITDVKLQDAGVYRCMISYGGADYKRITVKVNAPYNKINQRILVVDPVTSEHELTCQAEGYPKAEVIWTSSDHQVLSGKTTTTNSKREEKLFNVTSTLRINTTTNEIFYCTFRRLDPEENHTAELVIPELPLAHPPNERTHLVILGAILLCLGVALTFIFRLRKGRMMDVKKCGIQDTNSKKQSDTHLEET
Experimental: Based on antiproliferative activity of synthetized derivatives, we decided to study the effect of the amino derivatives 14–26 on the expression of both membrane targets PD-L1 and VEGFR-2 (mPD-L1 and mVEGFR-2). The evaluation was performed on three cancer cell lines (HT-29, A-549, and MCF-7) by flow cytometry after 24 h of treatment with the corresponding compounds. Compounds were used at a 100 or 10 μM concentration depending on their IC50 value (see Table 1 in Materials and Methods section). The presence of both targets in the membrane was relatively determined by using DMSO-treated cells as a negative control.
(§3) To study the effect of the compounds on every biological target in cancer cell lines the compounds were used at a 100 or 10 μM dose, depending on their IC50 and the treated cell line.
(§4) For the assay, 10^5 cells per well were incubated for 24 h with the corresponding dose of the tested compound in a total volume of 500 μL of their growth media.
To detect membrane PD-L1 and VEGFR-2, after the cell treatments, they were collected, fixed with 4% in PBS paraformaldehyde, and stained with FITC Mouse monoclonal Anti-Human VEGFR-2 (ab184903) and Alexa Fluor® 647 Rabbit monoclonal Anti-PD-L1 (ab215251).

[6] = target: T2, membrane VEGFR-2 (mVEGFR-2) (Homo sapiens, UniProt P35968); assay: Membrane VEGFR-2 relative quantification by flow cytometry; format: cell-based; settings: 24 h, 100 or 10 μM (Table 7), sorafenib 10 μM, percentage referred to DMSO control
T2 construct: endogenous in cells; host or cells: HT-29, A-549, MCF-7
T2 sequence (P35968 20-1356): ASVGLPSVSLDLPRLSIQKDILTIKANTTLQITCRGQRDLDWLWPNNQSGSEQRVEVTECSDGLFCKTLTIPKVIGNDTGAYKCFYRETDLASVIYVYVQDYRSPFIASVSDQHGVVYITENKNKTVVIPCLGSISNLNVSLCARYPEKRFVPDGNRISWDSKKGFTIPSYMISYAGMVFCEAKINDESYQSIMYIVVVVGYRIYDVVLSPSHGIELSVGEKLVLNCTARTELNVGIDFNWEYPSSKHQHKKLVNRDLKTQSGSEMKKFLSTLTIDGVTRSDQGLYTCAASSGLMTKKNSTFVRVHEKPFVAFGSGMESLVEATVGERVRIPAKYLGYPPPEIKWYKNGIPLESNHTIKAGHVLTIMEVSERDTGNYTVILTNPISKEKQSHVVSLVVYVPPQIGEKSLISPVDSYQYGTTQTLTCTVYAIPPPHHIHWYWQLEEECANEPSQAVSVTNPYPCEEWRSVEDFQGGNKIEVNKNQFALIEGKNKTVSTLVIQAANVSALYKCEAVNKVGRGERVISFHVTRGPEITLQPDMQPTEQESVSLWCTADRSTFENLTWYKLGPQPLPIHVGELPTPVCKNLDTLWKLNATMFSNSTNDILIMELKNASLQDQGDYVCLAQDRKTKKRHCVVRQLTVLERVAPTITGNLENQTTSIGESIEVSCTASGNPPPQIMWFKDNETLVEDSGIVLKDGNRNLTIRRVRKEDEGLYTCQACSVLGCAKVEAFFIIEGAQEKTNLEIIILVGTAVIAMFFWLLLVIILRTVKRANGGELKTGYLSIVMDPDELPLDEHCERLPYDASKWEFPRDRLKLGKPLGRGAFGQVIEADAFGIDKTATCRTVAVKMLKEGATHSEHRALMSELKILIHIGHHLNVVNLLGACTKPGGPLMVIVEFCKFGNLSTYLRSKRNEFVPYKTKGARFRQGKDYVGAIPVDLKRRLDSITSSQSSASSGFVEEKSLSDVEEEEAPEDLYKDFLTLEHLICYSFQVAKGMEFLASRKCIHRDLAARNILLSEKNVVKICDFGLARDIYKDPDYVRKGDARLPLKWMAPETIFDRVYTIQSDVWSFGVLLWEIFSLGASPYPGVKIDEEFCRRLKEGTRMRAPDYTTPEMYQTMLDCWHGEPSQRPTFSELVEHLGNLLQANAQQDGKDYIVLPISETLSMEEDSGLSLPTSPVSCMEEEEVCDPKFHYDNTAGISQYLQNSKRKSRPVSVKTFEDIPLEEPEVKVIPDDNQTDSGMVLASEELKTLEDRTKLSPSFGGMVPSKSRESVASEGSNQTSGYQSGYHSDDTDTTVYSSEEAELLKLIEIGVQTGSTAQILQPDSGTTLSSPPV
Experimental: The presence of both targets in the membrane was relatively determined by using DMSO-treated cells as a negative control.
as §4

[7] = target: T3, total PD-L1 (tPD-L1) (Homo sapiens, UniProt Q9NZQ7); assay: Total PD-L1 relative quantification by flow cytometry; format: cell-based; settings: for tPD-L1 relative detection, A-549 / tPD-L1 relative detection, HT-29 / tPD-L1 relative detection, MCF-7: 24 h, 100 or 10 μM (Table 7), relative to DMSO control
T3 construct: endogenous in cells; host or cells: HT-29, A-549, MCF-7
T3 sequence (Q9NZQ7 19-290): as the sequence (Q9NZQ7 19-290) above
Experimental: (§5) The study was carried out again on HT-29, A-549, and MCF-7 cell lines by flow cytometry after 24 h of treatment with the corresponding compounds. The presence of the targets in the whole cell were relatively determined by using DMSO-treated cells as a negative control and BMS-8 as a positive one for PD-L1 (Table 3).
as §3, §4
(§6) For the detection of total PD-L1, VEGFR-2, and c-Myc, the procedure was the same as for membrane targets, but after fixation, a treatment with 0,5% in PBS TritonTM X-100 was performed. The antibodies used for PD-L1 and VEGFR-2 were the ones previously described, and for the detection of c-Myc, it was FITC Rabbit monoclonal anti-c-Myc (ab223913).

[8] = system: c-Myc; assay: c-Myc relative quantification by flow cytometry; format: cell-based, human; settings: 24 h, 100 or 10 μM (Table 7), relative to DMSO control
Experimental: as §5, §3, §4, §6

Row | SMILES | melting point [°C] | IC50 [1] [µM] | IC50 [2] [µM] | IC50 [3] [µM] | mPD-L1 relative detection, A-549 [5] [%] | mPD-L1 relative detection, HT-29 [5] [%] | mPD-L1 relative detection, MCF-7 [5] [%] | mVEGFR-2 relative detection, A-549 [6] [%] | mVEGFR-2 relative detection, HT-29 [6] [%] | mVEGFR-2 relative detection, MCF-7 [6] [%] | tPD-L1 relative detection, A-549 ([7]; A-549) [%] | tPD-L1 relative detection, HT-29 [7] [%] | tPD-L1 relative detection, MCF-7 [7] [%] | Inhibition of total PD-L1, A-549 ([7]; A-549, compared to non-treated cells) [%] | IC50 [4] [µM] | c-Myc relative detection, A-549 [8] [%] | c-Myc relative detection, HT-29 [8] [%] | c-Myc relative detection, MCF-7 [8] [%]
1 | Clc1ccccc1Cn1cc(-c2ccccc2)nn1 [Compound 8, 1-(2-chlorobenzyl)-4-phenyl-1H-1,2,3-triazole] | 86 to 88 |  |  |  |  |  |  |  |  |  |  |  |  |  |  |  |  | 
2 | Clc1cccc(Cn2cc(-c3ccccc3)nn2)c1 [Compound 9, 1-(3-chlorobenzyl)-4-phenyl-1H-1,2,3-triazole] | 108 to 110 |  |  |  |  |  |  |  |  |  |  |  |  |  |  |  |  | 
3 | Clc1ccc(Cn2cc(-c3ccccc3)nn2)cc1 [Compound 10, 1-(4-chlorobenzyl)-4-phenyl-1H-1,2,3-triazole] | 141 to 144 |  |  |  |  |  |  |  |  |  |  |  |  |  |  |  |  | 
4 | Brc1ccccc1Cn1cc(-c2ccccc2)nn1 [Compound 11, 1-(2-bromobenzyl)-4-phenyl-1H-1,2,3-triazole] | 100 to 103 |  |  |  |  |  |  |  |  |  |  |  |  |  |  |  |  | 
5 | Brc1cccc(Cn2cc(-c3ccccc3)nn2)c1 [Compound 12, 1-(3-bromobenzyl)-4-phenyl-1H-1,2,3-triazole] | 96 to 99 |  |  |  |  |  |  |  |  |  |  |  |  |  |  |  |  | 
6 | Brc1ccc(Cn2cc(-c3ccccc3)nn2)cc1 [Compound 13, 1-(4-bromobenzyl)-4-phenyl-1H-1,2,3-triazole] | 153 to 155 |  |  |  |  |  |  |  |  |  |  |  |  |  |  |  |  | 

Now from value to compound, other results behind:

Row | melting point [°C] | IC50 [1] [µM] | IC50 [2] [µM] | IC50 [3] [µM] | mPD-L1 relative detection, A-549 [5] [%] | mPD-L1 relative detection, HT-29 [5] [%] | mPD-L1 relative detection, MCF-7 [5] [%] | mVEGFR-2 relative detection, A-549 [6] [%] | mVEGFR-2 relative detection, HT-29 [6] [%] | mVEGFR-2 relative detection, MCF-7 [6] [%] | tPD-L1 relative detection, A-549 ([7]; A-549) [%] | tPD-L1 relative detection, HT-29 [7] [%] | tPD-L1 relative detection, MCF-7 [7] [%] | Inhibition of total PD-L1, A-549 ([7]; A-549, compared to non-treated cells) [%] | SMILES | IC50 [4] [µM] | c-Myc relative detection, A-549 [8] [%] | c-Myc relative detection, HT-29 [8] [%] | c-Myc relative detection, MCF-7 [8] [%]
7 | 180 to 181 | 2 ± 1 | > 100 | 1 | >100 | >100 | 94 ± 5 | >100 | 95 ± 6 | >100 | 98 ± 3 | >100 | >100 |  | Nc1ccc(-c2cn(Cc3ccccc3)nn2)cc1 [Compound 14, 4-(1-benzyl-1H-1,2,3-triazol-4-yl)aniline] | > 100 | >100 | >100 | 60 ± 3
8 | 131 to 133 | 7 ± 1 | 4 ± 3 | 4 ± 1 | 90 ± 6 | 74 ± 13 | 84 ± 11 | >100 | 87 ± 1 | >100 | >100 | >100 | >100 |  | Cc1ccccc1Cn1cc(-c2ccc(N)cc2)nn1 [Compound 15, 4-(1-(2-methylbenzyl)-1H-1,2,3-triazol-4-yl)aniline] | > 100 | >100 | >100 | >100
9 | 128 to 129 | 9 ± 6 | 0.7 | 2.1 | 86 ± 17 | 66 ± 21 | >100 | >100 | 93 ± 1 | >100 | >100 | >100 | >100 |  | Cc1cccc(Cn2cc(-c3ccc(N)cc3)nn2)c1 [Compound 16, 4-(1-(3-methylbenzyl)-1H-1,2,3-triazol-4-yl)aniline] | 63 ± 34 | >100 | >100 | 78 ± 7
10 | 130 to 132 | 8 ± 2 | 1.7 | 4 ± 1 | 88 ± 21 | 87 ± 14 | 89 ± 5 | >100 | 81 ± 1 | >100 | 56 ± 19 | >100 | >100 | ~50 | Cc1ccc(Cn2cc(-c3ccc(N)cc3)nn2)cc1 [Compound 17, 4-(1-(4-methylbenzyl)-1H-1,2,3-triazol-4-yl)aniline] | 4 ± 2 | >100 | >100 | 63 ± 2
11 | 166 to 167 | > 100 | > 100 | > 100 | 89 ± 9 | 61 ± 22 | 81 ± 2 | >100 | 93 ± 1 | >100 | 91 ± 4 | 70 ± 11 | >100 |  | COc1ccccc1Cn1cc(-c2ccc(N)cc2)nn1 [Compound 18, 4-(1-(2-methoxybenzyl)-1H-1,2,3-triazol-4-yl)aniline] | > 100 | >100 | >100 | 53 ± 3
12 | 134 to 135 | 8.5 |  | 8 ± 4 | >100 | 87 ± 17 | 87 ± 17 | >100 | >100 | >100 | 76 ± 1 | 48 ± 7 | >100 |  | Nc1ccc(-c2cn(Cc3cccc(Br)c3)nn2)cc1 [Compound 25, 4-(1-(3-bromobenzyl)-1H-1,2,3-triazol-4-yl)aniline] | 4 ± 3 | >100 | >100 | 56 ± 10
13 |  | 17 ± 4 | 27 ± 2 | 14 ± 4 |  |  |  |  |  |  |  |  |  |  | CNC(=O)c1cc(Oc2ccc(NC(=O)Nc3ccc(Cl)c(C(F)(F)F)c3)cc2)ccn1 [Sorafenib, sorafenib, reference compound] | 5 |  |  | 
